For 1 compound, inhibition results are on record in article PMC6934184, “Selective DNA-PKcs inhibition extends the therapeutic index of localized radiotherapy and chemotherapy” (The Journal of Clinical Investigation, 2019).

In this assay the target is T1, DYRK4 (Homo sapiens, UniProt Q9NR20).
T1 construct: purchased Thermo Fisher Scientific (Life Technologies) SelectScreen
Put plainly: SelectScreen Z'LYTE. It is filed as biochemical. The procedure, abridged: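 Percent values come from Thermo SelectScreen profiling of NU5455, combining activity and binding assays. CSF1R was run in Z'LYTE format at Km app ATP, and CAMK1 in Adapta format with ATP listed at 10.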

T1 sequence (Q9NR20 whole entry): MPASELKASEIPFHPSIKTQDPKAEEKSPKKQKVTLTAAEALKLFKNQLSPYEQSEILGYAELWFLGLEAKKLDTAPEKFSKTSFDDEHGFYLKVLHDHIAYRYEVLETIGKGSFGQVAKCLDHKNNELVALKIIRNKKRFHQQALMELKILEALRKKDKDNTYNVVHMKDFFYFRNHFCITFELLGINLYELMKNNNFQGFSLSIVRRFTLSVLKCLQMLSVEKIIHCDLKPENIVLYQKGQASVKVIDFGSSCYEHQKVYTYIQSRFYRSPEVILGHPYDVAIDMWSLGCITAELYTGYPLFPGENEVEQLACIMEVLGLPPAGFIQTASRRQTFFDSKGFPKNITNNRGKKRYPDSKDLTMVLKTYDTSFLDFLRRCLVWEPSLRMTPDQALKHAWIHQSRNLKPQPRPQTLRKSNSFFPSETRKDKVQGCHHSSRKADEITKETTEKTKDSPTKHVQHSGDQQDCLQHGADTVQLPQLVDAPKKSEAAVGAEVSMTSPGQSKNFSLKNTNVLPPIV

The term inhibition denotes how much of the control response was suppressed. Low readings indicate a response near the control, high ones a response far below the control. On to `CN(C(=O)CN1CCOCC1)c1ccc2sc3c(-c4cccc5c(=O)cc(N6CC7CCC(C6)O7)oc45)cccc3c2c1` [NU5455], for which testing at 1 µM gave an inhibition of 0.3%.
